In US11744839B2, “Method of increasing platelet counts of a subject” (KOREA BASIC SCIENCE INSTITUTE, priority 2021, dated 2023):

What was measured:
BLVRB [1] = target: T1, BLVRB (Homo sapiens, UniProt P30043); assay: Isothermal titration calorimetry (ITC) of compound binding to BLVRB; conditions: for TΔS / ΔG / ΔH (enthalpy of the reaction) / N (stoichiometry) / contribution from entropy, of the total binding energy: 25 °C; for N (stoichiometry): single-site binding model; for Kd: read-out: KD (dissociation constant), 25 °C
T1 sequence (P30043 1-206): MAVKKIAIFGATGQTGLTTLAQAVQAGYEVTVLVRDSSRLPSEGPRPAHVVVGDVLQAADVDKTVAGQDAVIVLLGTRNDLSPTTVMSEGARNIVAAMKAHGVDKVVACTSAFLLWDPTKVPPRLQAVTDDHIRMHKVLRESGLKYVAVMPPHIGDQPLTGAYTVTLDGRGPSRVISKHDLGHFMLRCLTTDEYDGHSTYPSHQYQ

BLVRB [2] = target: T1, BLVRB; assay: Dynamic light scattering (DLS) of BLVRB with inhibitor; conditions: molar ratio 0, 1, 5, 10 compound/BLVRB
Text: FIGS. 2A and 2B show DLS results of BLVRB depending on the concentration of phloxine B (FIG. 2A) and erythorosin B (FIG. 2B). Molar ratio of the sample is 0, 1, 5, 10 [erythrosin B or phloxine B/BLVRB]. The horizontal axis represents the diameter of each drug on a logarithmic scale. The vertical axis represents the relative intensity of the signal.
(§1) The inhibition mechanism of these two compounds was investigated in physiological environment by NMR.

BLVRB [3] = target: T1, BLVRB; assay: NMR titration (HSQC) experiments with 15N-labeled BLVRB; type: binding; conditions: half-holo BLVRB 0.3 mM, ratio up to 1:10
Protocol: Ratio 1:0, 1:0.6, 1:1, 1:10 [Half-holo form of BLVRB (0.3 mM):phloxine B and erythrosin B].
as §1
Protein-based NMR spectroscopy is one of the most well-suited methods to identify intermolecular interactions including small molecule and protein interactions. Further, protein-based NMR methods provide information on binding sites, which is of prime interest for optimizing small molecules. Therefore, HSQC experiments of ^15N-labeled BLVRB were performed by titrating increasing amounts of the subject compounds to monitor the chemical shift changes upon the binding of the compounds identified in the enzyme activity assay. In particular, Ser111 was previously identified as a key residue involved in the catalytic mechanism of BLVRB. […] Using the assignment, the chemical shift perturbations (CSPs) of BLVRB by each drug were extracted from the spectra and the binding site of each drug was identified based on the CSPs.
Half-holo form of BLVRB (with NADP^+) was used for NMR experiments. All the subject compounds were dissolved in DMSO-d6. NMR titration and 1D experiments were operated at a ^1H frequency of 800 MHz using a Bruker Avance spectrometer. All experiments were performed at 298 K and 5 mm diameter NMR tubes with a sample volume 500 μL were used.

rats = conditions: chronic administration; cited from earlier work

Compound: Cc1nc(-c2ccc(OCC(C)C)c(C#N)c2)sc1C(=O)O [Compound of formula 5]
- TΔS (BLVRB [1]): 2.14 ± 0.11 kcal/mol
- ΔG (BLVRB [1]): -7.90 ± 0.08 kcal/mol
- ΔH (enthalpy of the reaction) (BLVRB [1]): -5.75 ± 0.08 kcal/mol
- N (stoichiometry) (BLVRB [1]): 1.01
- Kd (BLVRB [1]): 1.63 ± 0.21 µM

Compound: O=C(O)c1ccccc1-c1c2cc(I)c(=O)c(I)c-2oc2c(I)c(O)c(I)cc12 [Erythrosin B, reference compound]
- TΔS (BLVRB [1]): 2.91 ± 0.13 kcal/mol
- contribution from entropy, of the total binding energy (BLVRB [1]): 31%
- ΔG (BLVRB [1]): -9.28 ± 0.11 kcal/mol
- ΔH (enthalpy of the reaction) (BLVRB [1]): -6.38 ± 0.06 kcal/mol
- N (stoichiometry) (BLVRB [1]): 1.04
- Kd (BLVRB [1]): 0.16 ± 0.03 µM
- size of BLVRB-inhibitor complex (BLVRB [2]): increase in the size of the BLVRB-inhibitor complex
- multimerization of BLVRB upon addition of compound (BLVRB [3]): induce multimerization of BLVRB
- thyroid tumor promotion (rats): promote thyroid tumors in rats

Compound: Cc1c(Nc2ncccc2C(=O)O)cccc1C(F)(F)F [Compound of formula 7]
- TΔS (BLVRB [1]): 0.41 ± 0.07 kcal/mol
- ΔG (BLVRB [1]): -8.95 ± 0.06 kcal/mol
- ΔH (enthalpy of the reaction) (BLVRB [1]): -8.54 ± 0.04 kcal/mol
- N (stoichiometry) (BLVRB [1]): 0.99
- Kd (BLVRB [1]): 0.27 ± 0.03 µM

Compound: CC1(C)CCC(C)(C)c2cc(NC(=O)c3ccc(C(=O)O)cc3)ccc21 [Compound of formula 3]
- TΔS (BLVRB [1]): 3.50 ± 0.10 kcal/mol
- contribution from entropy, of the total binding energy (BLVRB [1]): 44%
- ΔG (BLVRB [1]): -7.99 ± 0.08 kcal/mol
- ΔH (enthalpy of the reaction) (BLVRB [1]): -4.49 ± 0.06 kcal/mol
- N (stoichiometry) (BLVRB [1]): 1.07
- Kd (BLVRB [1]): 1.38 ± 0.18 µM

Compound: O=C(O)c1cc2ccccc2c(Cc2c(O)c(C(=O)O)cc3ccccc23)c1O [Compound of formula 8]
- TΔS (BLVRB [1]): 1.08 ± 0.17 kcal/mol
- ΔG (BLVRB [1]): -7.84 ± 0.10 kcal/mol
- ΔH (enthalpy of the reaction) (BLVRB [1]): -6.76 ± 0.13 kcal/mol
- N (stoichiometry) (BLVRB [1]): 1.01
- Kd (BLVRB [1]): 1.8 ± 0.31 µM

Compound: O=C(O)c1ccc(-n2nc(-c3ccccc3O)nc2-c2ccccc2O)cc1 [Compound of formula 6]
- TΔS (BLVRB [1]): 0.55 ± 0.12 kcal/mol
- ΔG (BLVRB [1]): -7.87 ± 0.07 kcal/mol
- ΔH (enthalpy of the reaction) (BLVRB [1]): -7.32 ± 0.10 kcal/mol
- N (stoichiometry) (BLVRB [1]): 1.00
- Kd (BLVRB [1]): 1.71 ± 0.21 µM

Compound: O=C(O)c1cccc(-c2noc(-c3ccccc3F)n2)c1 [Compound of formula 4]
- TΔS (BLVRB [1]): -1.83 ± 0.09 kcal/mol
- ΔG (BLVRB [1]): -9.13 ± 0.07 kcal/mol
- ΔH (enthalpy of the reaction) (BLVRB [1]): -10.96 ± 0.06 kcal/mol
- N (stoichiometry) (BLVRB [1]): 1.02
- Kd (BLVRB [1]): 0.2 ± 0.02 µM

Compound: O=C([O-])c1c(Cl)c(Cl)c(Cl)c(Cl)c1-c1c2cc(Br)c(=O)c(Br)c-2oc2c(Br)c([O-])c(Br)cc12.[Na+].[Na+] [Phloxine B, reference compound]
- TΔS (BLVRB [1]): 4.12 ± 0.12 kcal/mol
- ΔG (BLVRB [1]): -8.00 ± 0.10 kcal/mol
- ΔH (enthalpy of the reaction) (BLVRB [1]): -3.88 ± 0.06 kcal/mol
- N (stoichiometry) (BLVRB [1]): 0.99
- Kd (BLVRB [1]): 1.36 ± 0.22 µM
- size of BLVRB-inhibitor complex (BLVRB [2]): increase in the size of the BLVRB-inhibitor complex
- multimerization of BLVRB upon addition of compound (BLVRB [3]): induce multimerization of BLVRB

Compound: O=C(O)c1cc(/N=N/c2ccc(S(=O)(=O)Nc3ccccn3)cc2)ccc1O [Compound of formula 1]
- TΔS (BLVRB [1]): -0.76 ± 0.07 kcal/mol
- ΔG (BLVRB [1]): -8.67 ± 0.05 kcal/mol
- ΔH (enthalpy of the reaction) (BLVRB [1]): -9.43 ± 0.05 kcal/mol
- N (stoichiometry) (BLVRB [1]): 0.99
- Kd (BLVRB [1]): 0.44 ± 0.04 µM
